The subject of series [1] is bacteria into which a plasmid encoding IMP-1 was introduced (pBCSK (+)/E. coli DH5a). The experiment in a line: Drug susceptibility test (MIC), IMP-1-producing strain. In kind it is cell-based. The settings on record: MIC of meropenem with inhibitor 10 μg/mL.
In series [2] the test system is bacteria into which a plasmid encoding NDM-1 was introduced (pBCSK (+)/E. coli DH5a). Put plainly: Drug susceptibility test (MIC), NDM-1-producing strain. In kind it is cell-based. The note with it: for MIC: Escherichia coli. The method, then:
(§1) Plates for drug susceptibility test measurement were prepared by using 96- or 384-well U-bottom plates, a Mueller-Hinton liquid medium, and antimicrobial drugs (ceftazidime (CAZ), imipenem (IPM), meropenem (MPM), doripenem (DPM), and biapenem (BPM)). A 1/2 antimicrobial drug dilution series was made up to well 11 of, for example, a 96-well U-bottom plate so that the leftmost well 1 of row A contained an antimicrobial drug at the maximum concentration, the antimicrobial drug concentration in well 2 to the right of well 1 was 1/2 of the maximum concentration, the antimicrobial drug concentration in well 3 to the right of well 2 was 1/4 of the maximum concentration, and so on. […] An antimicrobial drug dilution series was made in each of rows B and C in the same manner as in row A. Further, 10 μg/mL and 50 μg/mL of a test substance (compound A) were added to row B and row C, respectively (FIG. 1).
(§2) Bacteria into which a plasmid encoding a class B β-lactamase (metallo-β-lactamase (MBL): NDM-1, or VIM-2) was introduced (pBCSK (+)/E. coli DH5a) were used as test bacteria. The test bacteria were adjusted to 10^8 cfu/mL with a Mueller-Hinton medium. Further, the test bacteria were diluted 10-fold with a Mueller-Hinton medium (10^7 cfu/mL). 5 μl of the test bacteria was collected and inoculated into the plates for drug susceptibility test measurement. After overnight culture at 35° C., the growth of the test bacteria was visually checked. The concentration of the antimicrobial drug in a well containing the lowest concentration of the antimicrobial drug among the wells in which no growth of the test bacteria was confirmed was defined as the minimal inhibitory concentration value (FIG. 1).
(§3) The drug susceptibility test was performed in the same manner as in Test Example 1, except that compounds A to C and E to I were used as test substances.
(§4) The test was performed in the same manner as in Test Example 1, except that X2a, X2b, X2c, X2d, X3a, and X4 were used as test substances (inhibitors). The inhibitor concentration was 10 μg/mL.

Series [3] concerns bacteria into which a plasmid encoding VIM-2 was introduced (pBCSK (+)/E. coli DH5a). Put plainly: Drug susceptibility test (MIC), VIM-2-producing strain. The note with it: for MIC: Escherichia coli. In kind it is cell-based. The method, then: as §1, §2, §3, §4
Series [4] has as its target IMP-1 (Serratia marcescens, UniProt P52699). The experiment in a line: Inhibition constant (Ki) measurement test, IMP-1. In kind it is biochemical. The protocol: (§5) The inhibition constant (Ki) measurement test was performed in the following manner. The inhibition constant (Ki) was measured using various metallo-β-lactamases (final concentration: 10 nM). The imipenem decomposition activity (Δabs/min) at each point under the conditions of absorbance: 298 nm and temperature: 30° C. was measured by varying the concentration of imipenem as a substrate and the concentrations of test substances (compounds A to E) as inhibitors. Each measured value was fitted to the Lineweaver-Burk plot equation to calculate Ki.
(§6) The test was performed in the same manner as in Test Example 6, except that X2a, X2b, X2c, X2d, X3a, and X4 were used as test substances (inhibitors).

The target in series [5] is NDM-1 (Klebsiella pneumoniae, UniProt C7C422). The experiment in a line: Inhibition constant (Ki) measurement test, NDM-1. In kind it is biochemical. The protocol: as §5, §6
Chain of NDM-1 (C7C422 29-270, looked up, species assumed): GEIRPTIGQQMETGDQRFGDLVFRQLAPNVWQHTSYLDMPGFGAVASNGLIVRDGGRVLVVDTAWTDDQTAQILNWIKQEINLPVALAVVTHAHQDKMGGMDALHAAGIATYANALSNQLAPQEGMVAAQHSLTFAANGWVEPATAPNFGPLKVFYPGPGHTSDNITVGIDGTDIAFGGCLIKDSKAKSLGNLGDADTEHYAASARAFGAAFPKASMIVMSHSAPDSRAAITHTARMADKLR
In series [6] the target is VIM-2 (Escherichia coli, UniProt Q5U7L7). Put plainly: Inhibition constant (Ki) measurement test, VIM-2. It counts as biochemical. The protocol:
as §5, §6

Series [7] concerns bacteria (K. pneumoniae) in which a plasmid encoding NDM and VIM was introduced. The experiment in a line: Mouse abdominal infection model, K. pneumoniae NDM and VIM strain. In kind it is in vivo, mice. The note with it: test substance 10 mg/kg. The protocol: (§7) The laboratory strain grown overnight on a Mueller-Hinton agar medium was scraped with a sterile swab, suspended in physiological saline, adjusted to 2-5×10^8 CFU/mL, and mixed with an equal amount of a 10% mucin solution (1-2.5×10^8 CFU/mL) to prepare a bacterial liquid. Mice (Crl:CD1(ICR), male, 4 weeks old (Charles River Laboratories Japan, Inc.)) acclimated for 4 days after arrival were weighed, and then infected by intraperitoneal administration of 250 μL of the prepared bacterial liquid per mouse. An antimicrobial drug (meropenem trihydrate (WAKO 137-15674)) and the test substance were dissolved in physiological saline. A first intraperitoneal administration of the antimicrobial drug (0.2 mg/kg) and/or the test substance (100 mg/kg) was performed 1 hour after infection. A second administration was performed 3 hours after infection, in the same manner as the first administration (up to this point, day 0).
The animal study was performed in the same manner as in Test Example 12, except that in addition to a strain of Escherichia coli in which a plasmid encoding a class B lactamase (IMP-1) was introduced, bacteria (K. pneumoniae) in which a plasmid encoding NDM and VIM was introduced were used as a laboratory strain, compound I was administered as a test substance, […], and the dosage of the test substance was 10 mg/kg. […]

The test system of series [8] is β-lactamase-producing bacteria. Put plainly: Drug susceptibility tests, summary statements over all strains. It counts as cell-based, E. coli. The settings on record: addition of the compound. The protocol: as §1, §2
In series [9] the test system is β-lactamase. Put plainly: Inhibition constant (Ki) tests, summary statements over all enzymes. In kind it is biochemical. The protocol: as §5, §6
The test system of series [10] is Empty vector (no class B lactamase produced), pBCSK (+)/E. coli DH5a. Put plainly: Drug susceptibility test (MIC), empty vector strain. The settings on record: Escherichia coli. In kind it is cell-based.
The subject of series [11] is class B β-lactamase (IMP-1, NDM-1, or VIM-2). Put plainly: β-Lactamase inhibitory activity measurement test (imipenem decomposition). It counts as biochemical. The settings on record: test substance 0, 1, 10, 100 μM; enzyme 10 nM; imipenem 100 μM. The method, then:
Each individual class B β-lactamase (IMP-1, NDM-1, or VIM-2; final concentration: 10 nM), imipenem (final concentration: 100 μM), and each individual test substance (compound A or compound Z shown below; final concentrations: 0, 1, 10, 100 μM) were mixed in an HEPES buffer. The imipenem decomposition activity (Dabs/min) under the conditions of absorbance: 298 nm and temperature: 30° C. was measured. The imipenem decomposition activity when no test substance was added was defined as 100%, and the imipenem residual decomposition activity when each test substance was individually added was plotted.

Series [12] relates to strains of Enterobacteriaceae bacteria that produce class B β-lactamases. The experiment in a line: Drug susceptibility test 2. The settings on record: addition of compound A. In kind it is cell-based.
Series [13] concerns strains of Acinetobacter that produce class B β-lactamases. Put plainly: Drug susceptibility test 3. It counts as cell-based. The settings on record: addition of compound A.
The subject of series [14] is HeLa cells. Put plainly: Toxicity evaluation test (MTT assay). It counts as cell-based. The note with it: various concentrations. The method, then: Various concentrations of a test substance (compound A) or staurosporine were added to HeLa cells, and live cells were counted using an MTT assay kit (Promega Cat No. G4000).
(In general: Tetrazolium dyes change colour on reduction, which living cells bring about.)

A short description of series [15]: Reverse mutation test (Ames test). It counts as cell-based. The settings on record: entrusted to UBE Scientific Analysis Laboratory, Inc. The text has this: Compound A was used as a test substance.
Series [16] concerns strain of Escherichia coli in which a plasmid encoding a class B β-lactamase (IMP-1) was introduced. Put plainly: Mouse abdominal infection model, E. coli IMP-1 strain. In kind it is in vivo, mice. The protocol: After mice were infected with a laboratory strain (a strain of Escherichia coli in which a plasmid encoding a class B β-lactamase (IMP-1) was introduced), a test substance (compound A) was administered; and survival was observed. Specifically, the animal study was performed as follows.
as §7, with “0). […]” for “0).”

Where [17] appears, read: read-out: MIC CAZ + compound A (10 μg/ml).
Where [18] appears, read: read-out: MIC CAZ + compound A (50 μg/ml).
The mark [19] stands for this setting: read-out: MIC MPM + compound A (10 μg/ml).
The mark [20] stands for this setting: read-out: MIC MPM + compound A (50 μg/ml).
[21] abbreviates: imipenem substrate, enzyme 10 nM, 30° C., Lineweaver-Burk, read-out: Inhibition constant Ki IMP-1.
Where [22] appears, read: imipenem substrate, enzyme 10 nM, 30° C., Lineweaver-Burk, read-out: Inhibition constant Ki NDM-1.
Where [23] appears, read: imipenem substrate, enzyme 10 nM, 30° C., Lineweaver-Burk, read-out: Inhibition constant Ki VIM-2.

The structures appear in SMILES notation. Like-named read-outs stand apart in the source and are kept apart here.

Chain of IMP-1 (P52699 19-246, looked up, species assumed): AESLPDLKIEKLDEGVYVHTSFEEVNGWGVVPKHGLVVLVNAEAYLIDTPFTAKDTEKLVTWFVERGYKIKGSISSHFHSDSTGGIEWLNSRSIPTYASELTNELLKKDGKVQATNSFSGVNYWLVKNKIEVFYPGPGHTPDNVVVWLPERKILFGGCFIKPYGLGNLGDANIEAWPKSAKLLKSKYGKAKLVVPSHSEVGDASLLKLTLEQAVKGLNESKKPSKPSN

One may read the Ki as a measure of affinity in units of concentration, obtained from inhibition or displacement. Take `CCc1c(S(N)(=O)=O)c(C(=O)O)c(-c2ccccc2)n1C` [Compound X2d]: the “Meropenem MIC IMP1-producing strain” value in series [1] amounted to 0.031 µg/mL. Besides, the “Meropenem MIC NDM-1-producing strain” value in [2] (MIC of meropenem with inhibitor 10 μg/mL) was determined as 0.0625 µg/mL. Moreover, the “Ceftazidime MIC VIM-2-producing strain” value in series [3] (MIC of ceftazidime with inhibitor 10 μg/mL) was 1 µg/mL. For the same molecule, the inhibition constant (Ki) in [4] (Test Example 11, same manner as Test Example 6, read-out: Enzymatic Inhibition Effect Ki IMP-1) turned out to be 110 nM; in [5] (Test Example 11, same manner as Test Example 6, read-out: Enzymatic Inhibition Effect Ki NDM-1), 80 nM; in series [6] (Test Example 11, same manner as Test Example 6, read-out: Enzymatic Inhibition Effect Ki VIM-2), 33 nM. In [7] (antimicrobial drug 2 mg/kg or 8 mg/kg), the “survival rate (FIG. 13)” value is on record as “notably improved”. Also, the “effect on MICs of the antimicrobial drugs (statement on Tables 1, 2, 4)” value in [8] is reported as “decreases the MICs”. Also, the “β-lactamase activity inhibition (statement on Tables 2, 5)” value in series [9] is on record as “inhibits β-lactamase activity”.

`Cc1oc(C)c(S(N)(=O)=O)c1C(=O)O` [Compound A]: the MIC was found to be 256 µg/mL in series [2] (setting [17]); 64 µg/mL in [2] (setting [18]); 0.25 µg/mL in series [2] (setting [19]); 1 µg/mL in series [3] (setting [17]); 0.031 µg/mL in series [3] (setting [19]); 0.031 µg/mL in [3] (setting [20]). In addition, the MIC in [10] (setting [17]) was 0.25 µg/mL; in series [10] (setting [18]) it was 0.25 µg/mL; in series [10] (setting [19]), 0.016 µg/mL; in series [10] (setting [20]), 0.016 µg/mL. For the same molecule, the inhibitory constant (Ki) in series [4] (setting [21]) was determined as 220 nM; in series [5] (setting [22]), 9820 nM; in series [6] (setting [23]), 2800 nM. Moreover, the “β-lactamase inhibition (imipenem residual decomposition activity, FIG. 2)” value in series [11] is on record as “inhibit β-lactamases”. In addition, the “effect on MICs of the antimicrobial drugs (FIG. 3)” value in series [12] is “decreases the MICs”. Besides, the “effect on MICs of the antimicrobial drugs (FIG. 4)” value in series [13] is “decreases the MICs”. In addition, in series [14], the “toxicity (live cells, MTT, FIG. 9)” value is “very low”. Further, the Ames test result in series [15] is on record as “negative”. The “survival rate (FIG. 10)” value in series [16] (meropenem 0.2 mg/kg and test substance 100 mg/kg intraperitoneal, 1 and 3 hours after infection) was “notably improved”. Moreover, the “effect on MICs of the antimicrobial drugs (statement on Tables 1, 2, 4)” value in [8] is recorded as “decreases the MICs”.

As for `CCc1c(C(=O)O)c(S(N)(=O)=O)c(CC)n1C` [Compound I], the inhibitory constant (Ki) came to 2140 nM in series [4] (setting [21]), 840 nM in [5] (setting [22]) and 20 nM in series [6] (setting [23]). In addition, in [16] (antimicrobial drug 0.8 mg/kg or 4 mg/kg, test substance 10 mg/kg), the “survival rate (FIG. 11)” value is recorded as “notably improved”. Moreover, the “survival rate (FIG. 12)” value in [7] (antimicrobial drug 0.8 mg/kg or 4 mg/kg) is “notably improved”.
